The values below come from EP0186173A2, “L-Aminodicarboxylic-(0-cycloalkyl)-L-aminocarboxylate alkyl esters, an edible composition containing same as sweeteners and a method for sweetening an edible composition” (GENERAL FOODS CORPORATION, priority 1984, dated 1986).

Where a SMILES comes first, the peptide text is derived from it. The star is where a group is joined. tBu = CC(C)(C)*

For assay [1] the following is noted: qualitative statement from prior art / literature; cited from earlier work.
A short description of assay [2]: Sweetness taste panel: sucrose equivalency, aqueous solutions matched to sucrose standard solutions. The conditions noted are these: relative to sucrose. From the text: A taste procedure for determination of sweetness merely involves the determination.of sucrose equivalency. Sucrose equivalence for sweeteners are readily determined. The amount of a sweetener that is equivalent to a given weight percent sucrose can be determined by having a panel of tasters taste solutions of a sweetener at known concentrations and match its sweetness to standard solutionsof sucrose.
The following sensory evaluations were obtained by a panel of experts using known weight percent aqueous solutions of the above compound matched to sucrose standard solutions as previously described.

Consider `COC(=O)[C@H](COC(C)(C)C)NC(=O)[C@@H](N)CC(=O)O` [L-aspartyl-0-t,- butyl-L-serine methyl ester] (H-Asp-Ser(tBu)-OMe), for which the sweetness entry in assay [1] is on record as “significant sweetness”.

For `CCC(C)(C)OC[C@H](NC(=O)[C@@H](N)CC(=O)O)C(=O)OC` [L-aspartyl-0-t-amyl-L-serine methyl ester], the sweetness result in assay [1] was “significant sweetness”.

Consider `CCOC(=O)[C@H](COC1(C)CCCC1)NC(=O)[C@@H](N)CC(=O)O` [∝-L-Aspartyl-O-(1-methylcyclopentyl)-L-serine ethyl ester], for which the sweetness equivalent in assay [2] was found to be 150 x sucrose.
